Test results as given in patent US11369565B2, “Amino-pyrimidine skeletal muscle modulators” (Cytokinetics, Inc., priority 2010, dated 2022).

tested on: rabbit skeletal myofibrils (approximately 90% fast fibers); test: Activation of fast skeletal myofibrils (PUMA coupled-enzyme ATPase assay at pCa25); format: biochemical; conditions: concentration at which the compound increased the enzymatic activity by 40%; calcium at pCa25; PM12 buffer pH 6.8
Procedure: Preparation of fast skeletal myofibrils. Rabbit skeletal myofibrils were prepared based upon the method of Herrmann et al. (Biochem. 32(28):7255-7263(1993). Myofibrils were prepared from rabbit psoas muscle purchased from Pel-Freez Biologicals (Arkansas) within 2 days of ordering, stored on ice. Minced muscle was homogenized in 10 volumes of ice-cold “standard” buffer (50 mM Tris, pH 7.4, 0.1 M potassium acetate, 5 mM KCl, 2 mM DTT, 0.2 mM PMSF, 10 μM leupeptin, 5 μM pepstatin, and 0.5 mM sodium azide) containing 5 mM EDTA and 0.5% Triton X-100 using an Omni-Macro homogenizer. Myofibrils were recovered by low speed centrifugation (3000 rpm for 10 minutes) and washed 2 times in the Triton X-100 containing buffer to ensure removal of cellular membrane. Following the Triton washes, myofibrils were washed 3 times in “standard” buffer containing 2 mM magnesium acetate. A final wash in assay buffer (12 mM PIPES, pH 6.8, 60 mM KCl, 1 mM DTT) was performed and brought to 10% sucrose for flash freezing in liquid nitrogen and storage at −80° C.
Activation of Fast Skeletal Myofibrils. Fast fiber activators were identified by measuring the enzymatic activity of muscle myofibril preparations using the proprietary PUMA™ (see, e.g., U.S. Pat. Nos. 6,410,254, 6,743,599, 7,202,051, and 7,378,254) assay system. Myofibril preparations consisted of rabbit skeletal muscle (approximately 90% fast fibers) that had been mechanically homogenized and washed with a detergent (triton X-100) to remove cellular membranes. This preparation retained all of the sarcomeric components in a native conformation and the enzymatic activity was still regulated by calcium. Compounds were tested using a myofibril suspension and a level of calcium sufficient to increase enzymatic activity of the myofibrils to 25% of their maximal rate (termed pCa25). Enzymatic activity was tracked via a pyruvate kinase and lactate dehydrogenase-coupled enzyme system. This assay regenerates myosin-produced ADP into ATP by oxidizing NADH, producing an absorbance change at 340 nm. The buffering system was 12 mM Pipes, 2 mM MgCl2, 1 mM DTT at pH 6.8 (PM12 buffer).

Row | SMILES | Mean AC1.4
1 | CC(C)(CNc1ncc(-c2nccc(C(N)=O)n2)cn1)c1ncccc1F [2-(2-{[2-(3-fluoro(2-pyridyl))-2-methylpropyl]amino)pyrimidin-5-yl)pyrimidine-4-carboxamide] | C (C=10-20 uM)
2 | CC(C)(CNc1ncc2c(n1)CN(C(=O)C(N)=O)CC2)c1ccc(F)cc1 [2-(2-{[2-(4-fluorophenyl)-2-methylpropyl]amino}(5,6,7,8-tetrahydropyridino[3,4-d]pyrimidin-7-yl))-2-oxoacetamide] | D (D=>20 uM)
3 | CC(C)(CNc1ncc2c(n1)CCN(C(=O)C(N)=O)C2)c1ccc(F)cc1 [2-(2-{[2-(4-fluorophenyl)-2-methylpropyl]amino}(5,6,7,8-tetrahydropyridino[4,3-d]pyrimidin-6-yl))-2-oxoacetamide] | D (D=>20 uM)
4 | CC(C)[C@@H](Nc1ncc(-c2ncc(C(N)=O)s2)cn1)c1ncccc1Cl [2-(2-{[(1R)-1-(3-chloro(2-pyridyl))-2-methylpropyl]amino}pyrimidin-5-yl)-1,3-thazole-5-carboxamide] | D (D=>20 uM)
5 | CC(C)[C@@H](Nc1ncc(-c2ncc(C#N)s2)cn1)c1ncccc1Cl [2-(2-{[(1R)-1-(3-chloro(2-pyridyl))-2-methylpropyl]amino}pyrimidin-5-yl)-1,3-thiazole-5-carbonitrile] | D (D=>20 uM)
6 | CC(C)[C@H](Nc1ncc(-c2ncc(C#N)s2)cn1)c1ncccc1Cl [2-(2-{[(1S)-1-(3-chloro(2-pyridyl))-2-methylpropyl]amino}pyrimidin-5-yl)-1,3-thiazole-5-carbonitrile] | D (D=>20 uM)
7 | CC(C)[C@H](Nc1ncc(-c2ncc(C(N)=O)s2)cn1)c1ncccc1Cl [2-(2-{[(1S)-1-(3-chloro(2-pyridyl))-2-methylpropyl]amino}pyrimidin-5-yl)-1,3-thiazole-5-carboxamide] | D (D=>20 uM)
8 | N#Cc1cnc(-c2cnc(NCC3(c4ccccn4)CCC3)nc2)s1 [2-(2-{[(2-pyridylcyclobutyl)methyl]amino}pyrimidin-5-yl)-1,3-thiazole-5-carbonitrile] | D (D=>20 uM)
9 | NC(=O)c1cnc(-c2cnc(NCC3(c4ccccn4)CCC3)nc2)s1 [2-(2-{[(2-pyridylcyclobutyl)methyl]amino}pyrimidin-5-yl)-1,3-thlazole-5-carboxamide] | B (B=1-10 uM)
10 | NC(=O)c1cnc(NCC2(c3ncccc3F)CCC2)nc1 [2-({[(3-fluoro-2-pyridyl)cyclobutyl]methyl}amino) pyrimidine-5-carboxamide] | D (D=>20 uM)
11 | NC(=O)c1cc2cnc(NCC3(c4ncccc4F)CCC3)nc2s1 [2-({[(3-fluoro-2-pyridyl)cyclobutyl]methyl}amino) thiopheno[2,3-d]pyrimidine-6-carboxamide] | C (C=10-20 uM)
12 | CC(C)(O)c1cnn(-c2cnc(NC(C)(C)c3ncccc3Cl)nc2)c1 [2-[1-(2-{[1-(3-chloro(2-pyridyl))-isopropyl]amino}pyrimidin-5-yl)pyrazol-4-yl]propan-2-ol] | D (D=>20 uM)
13 | CC(C)(Nc1ncc(-c2nc(CC(N)=O)cs2)cn1)c1ncccc1F [2-[2-(2-{[1-(3-fluoro(2-pyridyl))-isopropyl]amino}pyrimidin-5-yl)-1,3-thiazol-4-yl]acetamide] | D (D=>20 uM)
14 | CC(C)(Nc1ncc(-c2ncc(C(N)=O)s2)cn1)c1cccc(OC(F)F)n1 [2-[2-({1-[6-(difluoromethoxy)(2-pyridyl)]-isopropyl}amino)pyrimidin-5-yl]-1,3-thiazole-5-carboxamide] | A (A=<1 uM)
15 | NC(=O)c1ccc(C(N)=O)c(-c2cnc(NC[C@]3(c4ncccc4F)C[C@H](F)C3)nc2)c1 [2-[2-({[3-fluoro-1-(3-fluoro(2-pyridyl))cyclobutyl)]methyl}amino) pyrimidin-5-yl]benzene-1,4-dicarboxamide] | B (B=1-10 uM)
16 | N#Cc1ccnc(-c2cnc(NC[C@]3(c4ncccc4F)C[C@H](F)C3)nc2)c1 [2-[2-({[3-fluoro-1-(3-fluoro(2-pyridyl))cyclobutyl]methyl)amino)pyrimidin-5-yl]pyridine-4-carbonitrile] | B (B=1-10 uM)
17 | NC(=O)c1ccccc1-c1cnc(NC[C@]2(c3ncccc3F)C[C@H](F)C2)nc1 [2-[2-({[3-fluoro-1-(3-fluoro(2-pyridyl))cyclobutyl]methyl}amino)pyrimidin-5-yl]benzamide] | C (C=10-20 uM)

Row | SMILES | Mean AC1.4
18 | NC(=O)c1ccnc(-c2cnc(NC[C@]3(c4ncccc4F)C[C@H](F)C3)nc2)c1 [2-[2-({[3-fluoro-1-(3-fluoro(2-pyridyl))cyclobutyl]methyl}amino)pyrimidin-5-yl]pyridine-4-carboxamide] | B (B=1-10 uM)
19 | N#Cc1ccnc(-c2cnc(NC[C@]3(c4ncccc4F)C[C@H](F)C3)nc2)n1 [2-[2-({[3-fluoro-1-(3-fluoro(2-pyridyl))cyclobutyl]methyl}amino)pyrimidin-5-yl]pyrimidine-4-carbonitrile] | B (B=1-10 uM)
20 | NC(=O)c1ccnc(-c2cnc(NC[C@]3(c4ncccc4F)C[C@H](F)C3)nc2)n1 [2-[2-({[3-fluoro-1-(3-fluoro(2-pyridyl))cyclobutyl]methyl}amino)pyrimidin-5-yl]pyrimidine-4-carboxamide] | B (B=1-10 uM)
21 | NC(=O)c1csc(-c2cnc(NCC3(c4ncccc4F)CCC3)nc2)n1 [2-[2-({[(3-fluoro-2-pyridyl)cyclobutyl]methyl}amino)pyrimidin-5-yl]-1,3-thiazole-4-carboxamide] | B (B=1-10 uM)
22 | O=C(O)c1csc(-c2cnc(NCC3(c4ncccc4F)CCC3)nc2)n1 [2-[2-({[(3-fluoro-2-pyridyl)cyclobutyl]methyl}amino)pyrimidin-5-yl]-1,3-thiazole-4-carboxylic acid] | C (C=10-20 uM)
23 | N#Cc1cnc(-c2cnc(NCC3(c4ncccc4F)CCC3)nc2)s1 [2-[2-({[(3-fluoro-2-pyridyl)cyclobutyl]methyl}amino)pyrimidin-5-yl]-1,3-thiazole-5-carbonitrile] | C (C=10-20 uM)
24 | NC(=O)c1cnc(-c2cnc(NCC3(c4ncccc4F)CCC3)nc2)s1 [2-[2-({[(3-fluoro-2-pyridyl)cyclobutyl]methyl}amino)pyrimidin-5-yl]-1,3-thiazole-5-carboxamide] | A (A=<1 uM)
25 | CC(C)(Nc1ncc(-c2cnn(CC(N)=O)c2)cn1)c1ncccc1Cl [2-[4-(2-{[1-(3-chloro(2-pyridyl))-isopropyl]amino}pyrimidin-5-yl)pyrazolyl]acetamide] | D (D=>20 uM)
26 | CC(C)(Nc1ncc(-c2cnn(CC(=O)O)c2)cn1)c1ncccc1Cl [2-[4-(2-{[1-(3-chloro(2-pyridyl))-isopropyl]amino}pyrimidin-5-yl)pyrazolyl]acetic acid] | D (D=>20 uM)
27 | CC(C)(Nc1ncc(-c2cnn(CCO)c2)cn1)c1ncccc1Cl [2-[4-(2-{[1-(3-chloro(2-pyridyl))-isopropyl]amino}pyrimidin-5-yl)pyrazolyl]ethan-1-ol] | D (D=>20 uM)
28 | CC(C)(Nc1ncc(-c2cc(CC(N)=O)ccc2F)cn1)c1ncccc1F [2-[4-fluoro-3-(2-{[1-(3-fluoro(2-pyridyl))-isopropyl]amino}pyrimidin-5-yl)phenyl]acetamide] | B (B=1-10 uM)
29 | CC(C)(C)OC(=O)NCC(=O)NCc1cnn(-c2cnc(NC(C)(C)c3ncccc3Cl)nc2)c1 [2-[(tert-butoxy)carbonylamino]-N-{[1-(2-{[1-(3-chloro(2-pyridyl))-isopropyl]amino}pyrimidin-5-yl)pyrazol-4-yl]methyl}acetamide] | D (D=>20 uM)
30 | CC(C)(Nc1ncc(-n2cc(CNC(=O)CN)cn2)cn1)c1ncccc1Cl [2-amino-N-{[1-(2-{[1-(3-chloro(2-pyridyl))-isopropyl]amino)pyrimidin-5-yl)pyrazol-4-yl]methyl]acetamide] | B (B=1-10 uM)
31 | CC(C)(Nc1ncc(-c2nc(CNC(=O)CN)cs2)cn1)c1ncccc1F [2-amino-N-{[2-(2-{[1-(3-fluoro(2-pyridyl))-isopropyl]amino}pyrimidin-5-yl)(1,3-thiazol-4-yl)]methyl}acetamide] | D (D=>20 uM)
32 | CC(C)(Nc1ncc(-c2ncc(CNC(=O)CN)s2)cn1)c1ncccc1F [2-amino-N-{[2-(2-{[1-(3-fluoro(2-pyridyl))-isopropyl]amino}pyrimidin-5-yl)(1,3-thiazol-5-yl)]methyl}acetamide] | D (D=>20 uM)
33 | NC(=O)Cc1cnc(-c2cnc(NC[C@]3(c4ncccc4Cl)C[C@H](F)C3)nc2)s1 [2-{2-[2-({[1-(3-chloro(2-pyridyl))-3-fluorocyclobutyl]methyl}amino)pyrimidin-5-yl]-1,3-thiazol-5-yl}acetamide] | B (B=1-10 uM)
